The results in this text go back to patent US20160287602A1, “METHODS FOR PROMOTING MOTOR NEURON SURVIVAL” (PRESIDENT AND FELLOWS OF HARVARD COLLEGE, priority 2013, published 2016).

Experiment [1] deals with wild-type (Hb9::GFP) mouse ESC derived MNs. The experiment can be described thus: MN survival after trophic factor withdrawal, mixed culture. It is filed as cell-based. From the text:
In the present study, we have screened highly specific small molecule kinase inhibitors to identify those which could promote MN survival. For the screen, we generated MNs from wild-type (Hb9::GFP) and SOD1^G93A (SOD1^G93A/Hb9::GFP) mouse ESCs using published protocols (Di Giorgio et al., 2007). We withdrew trophic factors as a standard method to induce MN death. Cell plating density as well as timing for initiation and duration of trophic factor withdrawal were used exactly as published to achieve ˜80% MN death in 3 days (FIG. 1A) (Yang et al., 2013). […] We continued to work with this compound class as it reproducibly promoted survival of both MNs types and the effect was robust. We further reasoned that since this compound class promoted survival of both MN types, the probability of its working in other contexts such as on human MNs and in the ALS mouse model was maximum. […]
(§1) Trophic factors were removed and ZM447439 was added to the cultures as previously and MN survival was analyzed on day 7, 14 & 21.

In experiment [2] the test system is SOD1^G93A (SOD1^G93A/Hb9::GFP) mouse ESC derived MNs. The experiment is described as above. It is filed as cell-based.
Description: In the present study, we have screened highly specific small molecule kinase inhibitors to identify those which could promote MN survival. For the screen, we generated MNs from wild-type (Hb9::GFP) and SOD1^G93A (SOD1^G93A/Hb9::GFP) mouse ESCs using published protocols (Di Giorgio et al., 2007). We withdrew trophic factors as a standard method to induce MN death. Cell plating density as well as timing for initiation and duration of trophic factor withdrawal were used exactly as published to achieve ˜80% MN death in 3 days (FIG. 1A) (Yang et al., 2013). […] We continued to work with this compound class as it reproducibly promoted survival of both MNs types and the effect was robust. We further reasoned that since this compound class promoted survival of both MN types, the probability of its working in other contexts such as on human MNs and in the ALS mouse model was maximum.
High expression of Aurora kinases is associated with various types of cancer (Sen et al., 1997; Reichardt et al., 2003; Tchatchou et al., 2007) and there are many AKIs including VX-680 and ZM447439 that are in clinical trials for anti-cancer drug development.
as §1

The subject of experiment [3] is synaptophysin in SOD1^G93A/Hb9::GFP MN cultures. Put plainly: Synaptophysin immunoblotting. Type of experiment: cell-based, mouse.
In experiment [4] the test system is Hb9::GFP MNs. Put plainly: MN survival in co-culture with primary WT or SOD1^G93A astrocytes. It is filed as cell-based, mouse. To be noted: Hb9::GFP MNs on WT or SOD1^G93A astrocytes. How it is done:
(§2) We sought to examine whether AKIs decrease the toxic effect of SOD1^G93A mutant astrocytes. We first cultured primary astrocytes from wild type (WT) and SOD1^G93A mice and plated FACS purified MNs on top. We observed significant cell death when MNs were cultured on mutated astrocytes compared to WT astrocytes. ZM447439 improved both Hb9::GFP and SOD1^G93A/Hb9::GFP MN survival.

The subject of experiment [5] is SOD1^G93A/Hb9::GFP MNs. The experiment is described as above. Type of experiment: cell-based, mouse. The protocol:
as §2

Experiment [6] relates to MNs. Put plainly: Lentivirus knockdown of Prkarlb, MN survival. It is filed as cell-based, mouse. From the text:
Next we sought to investigate the mechanism by which AKIs promote MN survival. To evaluate this comprehensively we performed microarray analysis to compare gene expression between MNs cultured with: 1) Trophic factors (+TF), 2) No trophic factors (−TF), 3) VX-680 in the absence of TFs, and 4) ZM447439 in the absence of TFs. […] Gene expression was compared between +TF and −TF, VX-680 and −TF, and ZM447439 and −TF. With a cut off of more than 3 fold difference, there were 85 genes overlapping in all three comparison in Hb9::GFP MNs and 57 in SOD1^G93A/Hb9::GFP MNs. We found 39 overlapping genes when we compared both types of MNs (FIG. 5B). […] We analyzed the shortlist of 39 genes by using DAVID functional annotation bioinformatics microarray analysis software to find the potential pathways involved in MN survival. […] PKA is known to phosphorylate BAD protein, leading to increased cell survival (Jose M. LIZCANO et al., 2000; Julian Downward et al., Nature cell biology 1999; Komaki S et al., Neurosci Lett 2012). […] We further investigated this pathway by lentivirus knockdown of Prkarlb.

The subject of experiment [7] is HuES-3/Hb9::GFP human ESC derived MNs. The experiment can be described thus: Human ESC derived MN survival after trophic factor withdrawal. Type of experiment: cell-based. To be noted: trophic factors withdrawn. The text has this:
(§3) We generated MNs from a human ESC line expressing an HB9::GFP transgene [HuES-3/Hb9::GFP (Di Giorgio et al., 2008)]. Human ESC derived MN cultures were pre-treated with AraC to eliminate progenitor cells. We induced MN death by again withdrawing trophic factors. […] We also investigated the toxic effect of SOD1^G93A astrocytes on human ESC derived MN survival. We found significant death of human MNs cultured on mutant astrocytes.

Experiment [8] has as its system human ESC derived MNs on SOD1^G93A astrocytes. Put plainly: Human ESC derived MNs co-cultured with astrocytes. It is filed as cell-based.
Description: as §3

For experiment [9], the system named is iPSCs derived MNs. The experiment can be described thus: iPSC derived MNs co-cultured with wild type or SOD1^G93A astrocytes. To be noted: iPSCs derived MNs cultured on wild type or SOD1^G93A astrocytes. Type of experiment: cell-based, human. From the text:
We produced MNs from human iPSCs lines including a healthy control, two ALS patients expressing confirmed mutations in SOD1 (Boulting et al., 2011), two with mutations in TDP-43 and one in C90RF72. We treated these cultures with AraC to minimize the number of proliferating progenitors. […] We also examined the effect of SOD 1^G93A astrocytes co-culture on iPSC derived MNs. We found no toxic effect on survival in any of the patient iPSC derived MNs, but we did observe decreased MN survival in the control iPSC derived MNs. […] We also looked at the effect of AKIs on morphology and synapse formation. […] In addition, by immunoblot we observed that ZM447439 enhanced synaptic protein, synaptophysin, expression in both the presence and absence of trophic factors.

“Also recorded” adds a separate entry of the source.

For `COc1cc2c(Nc3ccc(NC(=O)c4ccccc4)cc3)ncnc2cc1OCCCN1CCOCC1` [ZM447439, N-[4-[[6-Methoxy-7-[3-(4-morpholinyl)propoxy]-4-quinazolinyl]amino]phenyl]benzamide], the “survival effect in dose dependent assay, comparison among AKIs” value in [1] (mixed MN culture, FIG. 1B) is “most effective and potent in promoting MN survival; also recorded: most effective and potent of all AKIs assayed”. The “survival of MNs (number of surviving MNs)” value was “consistently increased the survival of MNs; also recorded: most potent and robust at increasing survival” in [1] (trophic factor withdrawal, 3 days, wild-type Hb9::GFP MNs); “consistently increased the survival of MNs; also recorded: most potent and robust at increasing survival” in experiment [2] (trophic factor withdrawal, 3 days, SOD1^G93A/Hb9::GFP MNs). Also, the “long term MN survival” value is recorded as “increased survival” in experiment [1] (trophic factors removed, day 7, 14 & 21, Hb9::GFP MNs) and “increased survival” in experiment [2] (trophic factors removed, day 7, 14 & 21, SOD1^G93A/Hb9::GFP MNs). Also, the “basal MN death” value in experiment [2] (in presence of neurotrophic factors, day 7, 14 & 21) is recorded as “prevented”. In addition, in [3], the “expression of synaptic protein synaptophysin” value is recorded as “increased expression”. Also, the “MN survival in astrocyte co-culture” value in [4] is reported as “improved”; in experiment [5] (SOD1^G93A/Hb9::GFP MN co-cultured with SOD1^G93A astrocytes), “less of an increase in survival”; in experiment [5] (SOD1^G93A/Hb9::GFP MNs on WT or SOD1^G93A astrocytes), “improved”; in experiment [9] it was “improved survival”. For the same compound, in experiment [6], the “MN survival on knocking down Prkarlb in the presence of the compound” value is “effectively decreased MN survival”. Moreover, the “human MN survival, comparison of VX-680 and ZM447439” value in experiment [7] (FIG. 7A) is “more effective and potent in preventing MN death”. Moreover, the “human MN survival” value in experiment [7] (AraC pre-treated cultures) was “rescued human MN death”. In addition, the “death of human MNs cultured on mutant astrocytes” value in experiment [8] (SOD1^G93A astrocytes co-culture) was “completely rescued; also recorded: decreases the toxic effect”. Further, the “size of human MN” value in experiment [8] (co-cultured with both wild-type and mutant astrocytes) is recorded as “significantly increased”.
